Read-outs that look alike come from different tables or passages of the source.

The values that follow come from patent US11963533B2 (priority 2017, dated 2024).

In data set [1] the test system is C. Lso (Ca. L. solanacearum). In kind it is in vivo, Candidatus Liberibacter solanacearum.
The subject of a further data set is sweet orange leaves. Conditions: in vivo.
For data set [2], the system named is C. Lso (Ca. L. solanacearum). The format is in vivo, Candidatus Liberibacter solanacearum. The source holds these as a separate data set.
Data set [3] has as its system C. Las (Candidatus Liberibacter asiaticus). The format is in vivo. Conditions: HLB-positive citrus plants, trunk delivery.
A further data set deals with Ca. L. solanacearum. The format is in vivo, Candidatus Liberibacter solanacearum. Conditions: 30 μM peptide by stem injection; for growth of infected plants compared to mock treatment: Ca. L. solanacearum-infected Nb plants, 3 weeks of treatment, FIG. 3A; for bacterial titer compared to plants treated with mock solution: Ca. L. solanacearum-infected plants, FIGS. 3B and 7.

For SAMP, the disease symptom entry in data set [1] (C. Lso-infected tomato, FIG. 6) is given as “largely reduced”; in data set [2] (C. Lso-infected potato, FIG. 5), “clearly inhibited”. For the same molecule, the “plant growth after C. Lso infection” value in data set [1] (tomato plants pre-treated with SAMP vs mock, exposed to C. Lso positive potato psyllids 5 days, 4 weeks post infection) was “grew better”; in data set [2] (potato plants pre-treated with SAMP 10 μM vs mock, exposed to C. Lso positive potato psyllids 5 days, 3 weeks post infection), “grew better”. Further, in the data set on sweet orange leaves, the “cell death in leaves” value was “No cell death”. The “yield of tuber production” value in data set [2] (C. Lso-infected potato, FIG. 5) is reported as “increased”. The “bacteria detected in the treated trees” value in data set [3] was “No bacteria were detected”. Also, the “reduction of bacterial titer of treated trees” value in data set [3] (FIG. 4: 100 nM or 10 μM once, 5 weeks) is listed as 30-100 folds. Further, the “symptoms of new shoots and leaves from the treated trees” value in data set [3] (mock treated plants still have yellow patch symptoms) is on record as “no longer symptomatic”. In the data set with human protease pepsin, the “time to complete digestion by pepsin” value is recorded as at most 45 min.

B1: CghSAMPa: stable antimicrobial peptide from Eremocitrus glauca x citrus sp., SEQ ID NO: 1, expressed and purified in E. coli (protein)
chain: MCCNRGKNVSIENLHQGFTHIFESTFESTEGVAEYVSHPSHVEYANLFLANLEKVLVIDYKPTTVRV
On to B1, for which, in the data set with Ca. L. solanacearum, the “growth of infected plants compared to mock treatment” value is recorded as “grow much better” and the “bacterial titer compared to plants treated with mock solution” value is recorded as “much lower”.

B2: CghSAMPb: stable antimicrobial peptide from Eremocitrus glauca x citrus sp., SEQ ID NO: 2, expressed and purified in E. coli (protein)
chain: MCCNRGKNVSIENLHQGFPHLFEFTFESTEGVAEYVSHPAHVEYANLFLANLEKVLVIDYKPTTVRV
For B2, in the data set on Ca. L. solanacearum, the “growth of infected plants compared to mock treatment” value is “grow much better” and the “bacterial titer compared to plants treated with mock solution” value is recorded as “much lower”.
